Assay results: patent US20110046107A1, “SULFONYL-SUBSTITUTED CARBAPENEM COMPOUNDS” (priority 2007, published 2011)
Converted amounts (≈) assume the structure as drawn. Read-outs that look alike come from different tables or passages of the source.

Experiments:
Assay in all cases: In vitro antibacterial activity, agar dilution method (clinical isolates)
Type in all cases: cell-based
[1] = system: Klebsiella pneumonia (producing ESBL); conditions: Klebsiella pneumoniae, read-out: MIC90 Klebsiella pneumonia
Description: (§1) Bacterial strains for test: All the bacterial strains are clinical isolates and purchased from public organizations. methicillin-sensitive staphylococcus aureus (MS SA), methicillin-resistant staphylococcus aureus (MRSA), methicillin-sensitive staphylococcus epidermidis (MSSE), methicillin-resistant staphylococcus epidermidis (MRSE), streptococcus pyogenes, penicillin-sensitive streptococcus pneumoniae (PSSP), penicillin-resistant streptococcus pneumoniae (PRSP), Escherichia coli, Citrobacter freundii, Enterobacter cloacae, Hemophilus influenza, Klebsiella pneumonia (producing ESBL), Morganella morganii, Proteus mirabilis, Serratia marcescens, and Pseudomonas aeruginosa.
(§2) Drugs to be tested: compounds of the invention prepared in the examples; the chemical names, structural formulae, preparation materials, and preparation methods are provided in the preparation examples of the compounds;
(§3) Meropenem (Meropenem for injection), Ertapenem (Ertapenem for injection), and Doripenem (Doripenem for injection) commercially available
(§4) Experimental method: the agar dilution method, by reference to Methodology of Pharmacological Experiment (XU Shuyun et al, published by the Peoples Medical Publishing House, 1st Edition, August, 1982; 3rd Edition, 5th printing, January 2002, p 1659-1660).

[2] = system: Morganella morganii; conditions: clinically isolated strains, Gram-negative
Description: as §1, §2, §3, §4

[3] = system: Citrobacter freundii; conditions: clinically isolated strains, Gram-negative
Description: as §1, §2, §3, §4

[4] = system: streptococcus pyogenes; conditions: clinically isolated strains, Gram-positive, read-out: MIC90 S. pyogenes
Description: as §1, §2, §3, §4

[5] = system: Serratia marcescens; conditions: read-out: MIC90 Serratia marcescens
Description: as §1, §2, §3, §4

[6] = system: methicillin-sensitive staphylococcus epidermidis (MSSE); conditions: read-out: MIC90 S. epidermidis MSSE
Description: as §1, §2, §3, §4

[7] = system: Pseudomonas aeruginosa; conditions: clinically isolated strains, Gram-negative
Description: as §1, §2, §3, §4

[8] = system: methicillin-sensitive staphylococcus aureus (MSSA); conditions: read-out: MIC90 S. aureus MSSA
Description: as §1, §2, §3, §4

[9] = system: methicillin-resistant staphylococcus aureus (MRSA); conditions: clinically isolated strains, Gram-positive, read-out: MIC90 S. aureus MRSA
Description: as §1, §2, §3, §4

[10] = system: penicillin-resistant streptococcus pneumoniae (PRSP); conditions: clinically isolated strains, Gram-positive, read-out: MIC90 S. pneumoniae PRSP
Description: as §1, §2, §3, §4

[11] = system: methicillin-resistant staphylococcus epidermidis (MRSE); conditions: clinically isolated strains, Gram-positive, read-out: MIC90 S. epidermidis MRSE
Description: as §1, §2, §3, §4

[12] = system: Escherichia coli; conditions: clinically isolated strains, Gram-negative, read-out: MIC90 E. coli
Description: as §1, §2, §3, §4

[13] = system: Enterobacter cloacae; conditions: read-out: MIC90 Enterobacter cloacae
Description: as §1, §2, §3, §4

[14] = system: Hemophilus influenza; conditions: read-out: MIC90 Hemophilus influenza
Description: as §1, §2, §3, §4

[15] = system: penicillin-sensitive streptococcus pneumoniae (PSSP); conditions: clinically isolated strains, Gram-positive, read-out: MIC90 S. pneumoniae PSSP
Description: as §1, §2, §3, §4

[16] = system: Proteus mirabilis; conditions: read-out: MIC90 Proteus mirabilis
Description: as §1, §2, §3, §4

[17] = clinically isolated strains, Gram-positive, agar dilution
[18] = clinically isolated strains, Gram-negative, agar dilution
[19] = clinically isolated strains (producing ESBL), Gram-negative, agar dilution

SMILES | MIC90 [2] [µg/mL] | MIC90 [3] [µg/mL] | MIC90 [4] [µg/mL] | MIC90 [5] [µg/mL] | MIC90 [6, 17] [µg/mL] | MIC90 [7] [µg/mL] | MIC90 [8, 17] [µg/mL] | MIC90 [9] [µg/mL] | MIC90 [10] [µg/mL] | MIC90 [11] [µg/mL] | MIC90 [12] [µg/mL] | MIC90 [13] [µg/mL] | MIC90 [15] [µg/mL] | MIC90 [16, 18] [µg/mL] | MIC90 [1, 19] [µg/mL] | MIC90 [5, 18] [µg/mL] | MIC90 [13, 18] [µg/mL] | MIC90 [14, 18] [µg/mL] | further results
C[C@@H](O)[C@H]1C(=O)N2C(C(=O)O)=C(S[C@H]3CCN(S(N)(=O)=O)C3)[C@H](C)[C@H]12 [Compound 2, (4R,5S,6S)-3-[(3S)-N-aminosulfonyl-pyrrolidin-3-yl]thio-6-[(1R)-1-hydroxyethyl]-4-methyl-7-oxo-1-aza-bicyclo-[3.2.0]hept-2-ene-2-carboxylic acid] | 0.063 (≈ 0.161 µM) | 0.032 (≈ 0.0817 µM) | 0.008 (≈ 0.0204 µM) | 0.125 (≈ 0.319 µM) | 0.063 (≈ 0.161 µM) | 8 (≈ 20.4 µM) | 0.063 (≈ 0.161 µM) | 16 (≈ 40.9 µM) | 0.5 (≈ 1.28 µM) | 8 (≈ 20.4 µM) | 0.016 (≈ 0.0409 µM) | 0.125 (≈ 0.319 µM) | 0.016 (≈ 0.0409 µM) | 0.63 (≈ 1.61 µM) |  |  |  |  | MIC90 [1]: 0.125 µg/mL (≈ 0.319 µM); MIC90 [14]: 0.125 µg/mL (≈ 0.319 µM)
C[C@@H](O)[C@H]1C(=O)N2C(C(=O)O)=C(SC3CCCN(S(N)(=O)=O)C3)[C@H](C)[C@H]12 (stereo partly drawn) [Compound 3, (4R,5S,6S)-3-[N-aminosulfonyl-piperidin-3-yl]thio-6-[(1R)-1-hydroxyethyl]-4-methyl-7-oxo-1-aza-bicyclo-[3.2.0]hept-2-ene-2-carboxylic acid] | 0.032 (≈ 0.0789 µM) | 0.063 (≈ 0.155 µM) | 0.008 (≈ 0.0197 µM) |  | 0.125 (≈ 0.308 µM) | 16 (≈ 39.5 µM) | 0.125 (≈ 0.308 µM) | 16 (≈ 39.5 µM) | 0.5 (≈ 1.23 µM) | 8 (≈ 19.7 µM) | 0.032 (≈ 0.0789 µM) |  | 0.016 (≈ 0.0395 µM) | 0.125 (≈ 0.308 µM) | 0.063 (≈ 0.155 µM) | 0.125 (≈ 0.308 µM) | 0.125 (≈ 0.308 µM) | 0.25 (≈ 0.617 µM) | 
C[C@@H](O)[C@H]1C(=O)N2C(C(=O)O)=C(SC3CN=CN(S(N)(=O)=O)C3)[C@H](C)[C@H]12 (stereo partly drawn) [Compound 4, (4R,5S,6S)-3-[1(4H)-aminosulfonyl-5,6-dihydropyrimidin-5-yl]-thio-6-[(1R)-1-hydroxyethyl]-4-methyl-7-oxo-1-aza-bicyclo-[3.2.0]hept-2-ene-2-carboxylic acid] | 0.063 (≈ 0.156 µM) | 0.032 (≈ 0.0791 µM) | 0.016 (≈ 0.0396 µM) | 0.125 (≈ 0.309 µM) | 0.063 (≈ 0.156 µM) | 32 (≈ 79.1 µM) |  | 8 (≈ 19.8 µM) | 1 (≈ 2.47 µM) | 16 (≈ 39.6 µM) | 0.032 (≈ 0.0791 µM) | 0.125 (≈ 0.309 µM) | 0.016 (≈ 0.0396 µM) |  | 0.063 (≈ 0.156 µM) |  |  | 0.125 (≈ 0.309 µM) | MIC90 [8]: 0.125 µg/mL (≈ 0.309 µM); MIC90 [16]: 0.125 µg/mL (≈ 0.309 µM)
C[C@@H](O)[C@H]1C(=O)N2C(C(=O)O)=C(SC3CNCN(S(N)(=O)=O)C3)[C@H](C)[C@H]12 (stereo partly drawn) [Compound 5, (4R,5S,6S)-3-[1(2H)-aminosulfonyl-tetrahydropyrimidin-5-yl]-thio-6-[(1R)-1-hydroxyethyl]-4-methyl-7-oxo-1-aza-bicyclo-[3.2.0]hept-2-ene-2-carboxylic acid] | 0.063 (≈ 0.155 µM) | 0.032 (≈ 0.0787 µM) | 0.016 (≈ 0.0394 µM) |  |  | 16 (≈ 39.4 µM) | 0.25 (≈ 0.615 µM) | 16 (≈ 39.4 µM) | 1 (≈ 2.46 µM) | 16 (≈ 39.4 µM) | 0.032 (≈ 0.0787 µM) |  | 0.016 (≈ 0.0394 µM) | 0.063 (≈ 0.155 µM) |  | 0.063 (≈ 0.155 µM) | 0.25 (≈ 0.615 µM) | 0.125 (≈ 0.308 µM) | MIC90 [1]: 0.125 µg/mL (≈ 0.308 µM); MIC90 [6]: 0.125 µg/mL (≈ 0.308 µM)
CCN(CC)S(=O)(=O)N1CC(SC2=C(C(=O)O)N3C(=O)[C@H]([C@@H](C)O)[C@H]3[C@H]2C)C1 [Compound 7, (4R,5S,6S)-3-[1-(N,N-diethylaminosulfonyl)-azetidin-3-yl]thio-6-[(1R)-1-hydroxyethyl]-4-methyl-7-oxo-1-aza-bicyclo-[3.2.0]hept-2-ene-2-carboxylic acid] | 0.063 (≈ 0.145 µM) | 0.016 (≈ 0.0369 µM) | 0.004 (≈ 0.00923 µM) |  | 0.063 (≈ 0.145 µM) | 8 (≈ 18.5 µM) | 0.063 (≈ 0.145 µM) | 8 (≈ 18.5 µM) | 0.5 (≈ 1.15 µM) | 8 (≈ 18.5 µM) | 0.016 (≈ 0.0369 µM) | 0.125 (≈ 0.288 µM) | 0.008 (≈ 0.0185 µM) |  | 0.063 (≈ 0.145 µM) | 0.063 (≈ 0.145 µM) |  | 0.125 (≈ 0.288 µM) | MIC90 [16]: 0.125 µg/mL (≈ 0.288 µM)
C[C@@H](O)[C@H]1C(=O)N2C(C(=O)O)=C(SC3CN(S(=O)(=O)NCC(N)=O)C3)[C@H](C)[C@H]12 [Compound 10] | 0.016 (≈ 0.0368 µM) | 0.032 (≈ 0.0736 µM) | 0.008 (≈ 0.0184 µM) |  | 0.063 (≈ 0.145 µM) | 8 (≈ 18.4 µM) | 0.063 (≈ 0.145 µM) | 8 (≈ 18.4 µM) | 5 (≈ 11.5 µM) | 16 (≈ 36.8 µM) | 0.008 (≈ 0.0184 µM) | 0.125 (≈ 0.288 µM) | 0.008 (≈ 0.0184 µM) | 0.063 (≈ 0.145 µM) | 0.063 (≈ 0.145 µM) | 0.063 (≈ 0.145 µM) |  | 0.125 (≈ 0.288 µM) | 
C[C@@H](O)[C@H]1C(=O)N2C(C(=O)O)=C(S[C@@H]3CN[C@H](C(=O)Nc4cccc(C(=O)O)c4)C3)[C@H](C)[C@H]12 [ertapenem, Ertapenem, reference compound] | 0.25 (≈ 0.526 µM) | 0.25 (≈ 0.526 µM) | 0.032 (≈ 0.0673 µM) |  | 0.5 (≈ 1.05 µM) | 32 (≈ 67.3 µM) | 0.5 (≈ 1.05 µM) | > 64 | 2 (≈ 4.21 µM) | 64 (≈ 135 µM) | 0.25 (≈ 0.526 µM) |  | 0.063 (≈ 0.132 µM) | 1 (≈ 2.1 µM) | 1 (≈ 2.1 µM) | 0.5 (≈ 1.05 µM) | 2 (≈ 4.21 µM) | 1 (≈ 2.1 µM) | 
C[C@@H](O)[C@H]1C(=O)N2C(C(=O)[O-])=C(SC3CN(S(=O)(=O)NCC(O)CN)C3)[C@H](C)[C@H]12.[Na+] (some centres unmarked) [sodium salt of compound 9] | 0.032 | 0.032 | 0.008 | 0.125 | 0.063 | 16 | 0.032 | 16 | 0.5 | 8 | 0.016 |  | 0.008 | 0.63 | 0.063 |  | 0.063 |  | MIC90 [14]: 0.125 µg/mL
